Molecules are shown by their SMILES.

The target of assay [1] is Delta-type opioid receptor (Homo sapiens) (UniProt P41143). To be noted: Cavia porcellus; Ileum; 20 nM.
Description: Antagonistic activity at Opioid receptor delta 1 in electrically stimulated Guinea pig ileum using DADLE as the agonist at 20 nM concentration
For assay [2], the target named is Kappa-type opioid receptor (Cavia porcellus) (UniProt P41144). To be noted: Ileum, 20 nM.
Description: Antagonistic activity at Opioid receptor kappa 1 in electrically stimulated Guinea pig ileum using ethylketazocine as the agonist at 20 nM concentration
Assay [3] concerns the target Mu-type opioid receptor (Cavia porcellus) (UniProt P97266). To be noted: Ileum, 20 nM.
Description: Antagonistic activity at Opioid receptor mu 1 in electrically stimulated Guinea pig ileum using morphine as the agonist at 20 nM concentration
In assay [4] the target is Delta-type opioid receptor (Homo sapiens) (UniProt P41143). The settings on record: Cavia porcellus; Ileum; 20 nM. This is another data set of the same source.
Description: Antagonistic activity at Opioid receptor delta 1 in electrically stimulated Guinea pig ileum using DADLE as the agonist at 20 nM
The target in assay [5] is Mu-type opioid receptor (Cavia porcellus) (UniProt P97266). The settings on record: Ileum, 100 nM.
Mu-type opioid receptor (Cavia porcellus), sequence (P97266 whole entry): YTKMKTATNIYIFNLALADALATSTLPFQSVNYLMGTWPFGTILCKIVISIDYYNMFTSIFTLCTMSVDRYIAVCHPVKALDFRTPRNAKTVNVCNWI
Description: Antagonistic activity at Opioid receptor mu 1 in electrically stimulated Guinea pig ileum using morphine as the agonist at 100 nM

Delta-type opioid receptor (Homo sapiens), sequence (P41143 whole entry): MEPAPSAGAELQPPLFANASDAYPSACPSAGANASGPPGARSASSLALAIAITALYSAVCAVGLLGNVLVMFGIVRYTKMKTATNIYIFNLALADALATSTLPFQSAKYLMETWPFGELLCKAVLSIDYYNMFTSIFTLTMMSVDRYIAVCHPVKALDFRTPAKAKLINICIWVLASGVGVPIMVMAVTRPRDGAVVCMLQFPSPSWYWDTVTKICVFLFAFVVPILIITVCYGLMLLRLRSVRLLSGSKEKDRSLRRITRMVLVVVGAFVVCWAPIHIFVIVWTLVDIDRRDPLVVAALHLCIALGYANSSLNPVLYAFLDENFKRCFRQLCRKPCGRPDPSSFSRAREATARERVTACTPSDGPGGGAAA
Kappa-type opioid receptor (Cavia porcellus), sequence (P41144 whole entry): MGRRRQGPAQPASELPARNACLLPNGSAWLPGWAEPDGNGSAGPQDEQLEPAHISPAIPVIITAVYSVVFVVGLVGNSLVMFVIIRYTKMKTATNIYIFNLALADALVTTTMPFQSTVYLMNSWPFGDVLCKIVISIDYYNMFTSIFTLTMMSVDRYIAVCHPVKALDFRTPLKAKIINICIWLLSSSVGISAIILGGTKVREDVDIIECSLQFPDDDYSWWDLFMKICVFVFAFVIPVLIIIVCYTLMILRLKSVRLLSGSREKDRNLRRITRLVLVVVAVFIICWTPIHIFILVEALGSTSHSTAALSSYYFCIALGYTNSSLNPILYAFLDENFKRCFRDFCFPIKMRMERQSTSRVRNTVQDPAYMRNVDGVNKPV

Consider `Oc1ccc2c3c1O[C@H]1c4[nH]c5c(c4C[C@@]4(O)[C@@H](C2)N(CC2CC2)CC[C@]314)C[C@]1(O)[C@@H]2Cc3ccc(O)c4c3[C@]1(CCN2CC1CC1)[C@@H]5O4`, for which the Ke in assay [1] worked out at 1.3 nM; in assay [2], 0.08 nM; in assay [3], 1.1 nM. `Oc1ccc2c3c1O[C@H]1c4[nH]c5c(c4C[C@@]4(O)[C@@H](C2)N(CC2CC2)CC[C@]314)C[C@@]1(O)[C@H]2Cc3ccc(O)c4c3[C@@]1(CCN2CC1CC1)[C@H]5O4` yielded a Ke in assay [4] of 10 nM. Compound `Oc1ccc2c3c1O[C@@H]1c4[nH]c5c(c4C[C@]4(O)[C@H](C2)N(CC2CC2)CC[C@@]314)C[C@]1(O)[C@@H]2Cc3ccc(O)c4c3[C@]1(CCN2CC1CC1)[C@@H]5O4` came in with a Ke in assay [5] of 77 nM.

These data come from ChEMBL document CHEMBL1124272, “Only one pharmacophore is required for the kappa opioid antagonist selectivity of norbinaltorphimine” (J Med Chem, 1988).
